Experimental data as given in US8709303B2, “Dielectric insulation medium” (ABB Research Ltd., priority 2010, dated 2014).

Assays:
[1] = risk for human toxicity, concluded from mammalian HFC tests; settings: concluded from available results of mammalian HFC tests
Source text: This can be concluded from the available results of mammalian HFC (hydrofluorocarbon) tests. Also, information available on commercial hydrofluoro monoethers give no evidence of carcinogenicity, mutagenicity, reproductive/developmental effect and other chronic effects of the compounds of the present application.

[2] = products include I2; cited from earlier work
thermal stability = settings: 175° C. for 30 days

Row | Structure (SMILES) | risk for human toxicity [1] | temperature at which decomposition into hazardous products starts [2] | thermal stability (thermal stability)
1 | FC(F)(F)COC(F)(F)F [2,2,2-trifluoroethyl-trifluoromethyl ether (CF3—O—CH2CF3)] | low risk for human toxicity | – | –
2 | FC(F)(F)I [CF3I, trifluoroiodomethane (CF3I)] | – | around 100 °C | –
3 | COC(F)(F)C(F)(F)F [pentafluoro-ethyl-methyl ether, pentafluoro-ethyl-methyl ether (CH3—O—CF2CF3)] | low risk for human toxicity | – | thermally stable
